Data as given in PubChem BioAssay AID743087 (Broad Institute, 2013).
Calls of active or inactive are those of the source.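 The calls were made as follows: active = IC50 below 100 nM in HeLa cells, the median call across repeat tests; inactive = IC50 above 100 nM in HeLa cells.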

System: not listed separately
Test: HeLa cell killing, TP53 mutant line, dose response, CellTiter-Glo luminescence, dry powder (AID 743087)
Settings: HeLa viability, CellTiter-Glo luminescence, 48 h

| Compound | outcome |
| --- | --- |
| CCN(CC)c1ccc(-c2nc(C(C)C)no2)cc1[N+](=O)[O-] | inactive |

System: HeLa viability, CellTiter-Glo luminescence, 48 h
Test: as above
Settings: not given

| Compound | IC50 |
| --- | --- |
| Cc1nc2ccc(C3=NNC(=O)C[C@H]3C)cc2[nH]1 | > 1000 nM (inactive) |
| C[C@@H]1CC(=O)NN=C1c1ccc(F)c(F)c1 | 22 nM |
| Cc1ccc(CCC(=O)N2CCN(c3ccc(C4=NNC(=O)CC4C)cc3)CC2)cc1 (configuration not stated) | > 1000 nM (inactive) |
| CCN(CC)c1ccc(C2=NNC(=O)CC2C)cc1 (configuration not stated) | 8.54 nM |
| CC1CC(=O)NN=C1c1ccc(N2CCOCC2)c(F)c1 (configuration not stated) | 2.73 nM |
| C[C@@H]1CC(=O)NN=C1c1ccc(Cl)cc1 | 32.6 nM |
| C[C@@H]1CC(=O)NN=C1c1ccc(N2CCOCC2)cc1 | 13 nM |
| CC(=O)Nc1ccc(C2=NNC(=O)C[C@H]2C)cc1Br | 21.4 nM |
| CCN(CC)c1ccc(C2=NNC(=O)C[C@H]2C)cc1 | 3.71 nM |
| CC(=O)Nc1ccc(C2=NNC(=O)C[C@H]2C)cc1C(C)=O | 126 nM (inactive) |
| CC(=O)Nc1ccc(C2=NNC(=O)C[C@H]2C)cc1[N+](=O)[O-] | 4.78 nM |
| CCN(CC)c1ccc(C2=NNC(=O)CC2C)cc1N (configuration not stated) | 232 nM (inactive) |
| CCN(CC)c1ccc(C2=NNC(=O)C2(C)C)cc1 | > 1000 nM (inactive) |
| C[C@@H]1CC(=O)NN=C1c1ccc(N2CCOCC2)c(F)c1 | 1.58 nM |
| CCN(CC)c1ccc(C2=NNC(=O)C[C@H]2C)cc1[N+](=O)[O-] | > 1000 nM (inactive) |
| CC1(C)C(=O)NN=C1c1ccc([N+](=O)[O-])cc1 | > 1000 nM (inactive) |
| CC1CC(=O)NN=C1c1ccc(N2CCN(C(=O)Cc3ccc(Cl)cc3Cl)CC2)cc1 (configuration not stated) | > 1000 nM (inactive) |
| CC1(C)C(=O)NN=C1c1ccc(N2CCOCC2)cc1 | > 1000 nM (inactive) |
| CCN1N=C(c2ccc(N(CC)CC)cc2)[C@H](C)CC1=O | > 1000 nM (inactive) |
| O=C1CC(c2ccccc2)=NN1 | > 1000 nM (inactive) |
| C[C@@H]1CC(=O)NN=C1c1ccc(N)c(Br)c1 | > 1000 nM (inactive) |

| Compound | IC50 |
| --- | --- |
| CC(=O)Nc1ccc(C2=NNC(=O)C[C@H]2C)cc1 | 4.78 nM |
| C[C@@H]1CC(=O)NN=C1c1ccc(N2CCOCC2)cc1 (racemic) | 35.1 nM |
| C[C@@H]1CC(=O)NN=C1c1ccc(N2CCN(C)CC2)cc1 | 297 nM (inactive) |
| CCNc1ccc(C2=NNC(=O)C[C@H]2C)cc1[N+](=O)[O-] | 1.08 nM |
| CC1CC(=O)NN=C1c1ccc(F)c(F)c1 (configuration not stated) | 64.1 nM |
| C[C@@H]1CC(=O)NN=C1c1ccc(N)c([N+](=O)[O-])c1 | > 1000 nM (inactive) |
| CCNc1ccc(C2=NNC(=O)C[C@H]2C)cc1 | 71 nM |
| C[C@@H]1CC(=O)NN=C1c1ccc(I)cc1 | 7.02 nM |
| O=C1C[C@H]2CCc3cc(N4CCOCC4)ccc3C2=NN1 (racemic) | > 1000 nM (inactive) |
| CC(=O)Nc1ccc(-c2n[nH]c(=O)cc2C)cc1 | > 1000 nM (inactive) |
| CC(=O)N1CCN(c2ccc(C3=NNC(=O)CC3C)cc2F)CC1 (configuration not stated) | > 1000 nM (inactive) |
| C[C@@H]1CC(=O)NN=C1c1ccc(-c2cncnc2)cc1 | 12.6 nM |
| C[C@@H]1CC(=O)NN=C1c1ccccc1 | 428 nM (inactive) |
| CC(=O)Nc1ccc(C2=NNC(=O)C[C@H]2C)cc1N | > 1000 nM (inactive) |
| C[C@@H]1CC(=O)NN=C1c1ccc([Si](C)(C)C)cc1 | 179 nM (inactive) |
| CCCc1ccc(C2=NNC(=O)C[C@H]2C)cc1 | 16.2 nM |
| Cc1cc(=O)[nH]nc1-c1ccc(N)cc1 | > 1000 nM (inactive) |
| CC1C(=O)NN=C1c1ccc([N+](=O)[O-])cc1 (configuration not stated) | > 1000 nM (inactive) |
| C[C@@H]1CC(=O)NN=C1c1ccc(N2CCCOC2=O)cc1 | > 1000 nM (inactive) |
| CCN(CC)c1ccc(-c2n[nH]c(=O)cc2C)cc1 | > 1000 nM (inactive) |
| C[C@@H]1CC(=O)NN=C1c1ccc(C2CCCCC2)cc1 | 7.59 nM |

| Compound | IC50 |
| --- | --- |
| C#Cc1cc(C2=NNC(=O)C[C@H]2C)ccc1NC(C)=O | 64.6 nM |
| CC1CC(=O)NN=C1c1cccs1 (configuration not stated) | > 1000 nM (inactive) |
| CCN(CC)c1ccc(C(=O)Nc2ccccc2)cc1[N+](=O)[O-] | > 1000 nM (inactive) |
| CC(=O)Nc1ccc(C2=NNC(=O)CC2C)cc1 (configuration not stated) | > 1000 nM (inactive) |
| CCN(CC)c1ccc(C2=NNC(=O)CC2C)cc1NCCOCCOCCNC(=O)OC(C)(C)C (configuration not stated) | > 1000 nM (inactive) |
| C[C@@H]1CC(=O)NN=C1c1ccc(N2CCCC2=O)cc1 | 133 nM (inactive) |
| C[C@@H]1CC(=O)NN=C1c1ccc(F)cc1 (racemic) | 360 nM (inactive) |
| C/C=C/c1ccc(C2=NNC(=O)C[C@H]2C)cc1 | 8.73 nM |
| C[C@@H]1CC(=O)NN=C1c1ccc(-n2cnnc2)cc1 | > 1000 nM (inactive) |
| C[C@@H]1CC(=O)NN=C1c1ccc(N2CCCCC2=O)cc1 | > 1000 nM (inactive) |
| CC1CC(=O)N(c2ccccc2)N=C1c1ccc(Cl)cc1 (configuration not stated) | > 1000 nM (inactive) |
| C[C@@H]1CC(=O)NN=C1c1ccc(N2CCCCS2(=O)=O)cc1 | 478 nM (inactive) |
| C[C@H]1CC(=O)NN=C1c1ccc(N2CCOCC2)c(F)c1 | > 1000 nM (inactive) |
| CCN(CC)c1ccc(C2=NNC(=O)CC2C)cc1NC(C)=O (configuration not stated) | > 1000 nM (inactive) |
| C[C@@H]1CC(=O)NN=C1c1ccc(N2CCCCC2)cc1 | 3.83 nM |
| CC1(C)C(=O)NN=C1c1ccc(N)cc1 | > 1000 nM (inactive) |
| CC1(C)C(=O)NN=C1c1ccc(Cl)cc1 | > 1000 nM (inactive) |
| C[C@@H]1CC(=O)NN=C1c1ccc(C2=CCCCC2)cc1 | 2.22 nM |
| C[C@H]1CC(=O)NN=C1c1ccc(F)c(F)c1 | > 1000 nM (inactive) |
